Results from US20200022963A1, “PHARMACEUTICAL COMPOSITION COMPRISING BETAHISTINE” (Otolanum AG, priority 2017, published 2020).

Assay: Pharmacokinetic profile after single oral, intranasal and intravenous betahistine in beagle dogs, Example 5
Assay type: in vivo
Conditions: male, beagle, dog, in vivo; for concentration at 2 h / concentration at 3 h / concentration at 6 h / concentration at 24 h / concentration at 0 h / concentration at 5 min / concentration at 0.167 h / concentration at 0.333 h / concentration at 0.5 h / concentration at 1 h: Betahistine Plasma Concentration
Experimental: In this study, the pharmacokinetic profile of betahistine was evaluated after a single dose administration of betahistine in male and female beagle dogs (age 5-7 months; weight of 5-11 kg, within a range of 3 kg for each sex) for three routes of administration: oral, intranasal, and intravenous.
On Day 1 of the study, betahistine (BH) was delivered orally at a dose of 12 mg/kg, 24 mg/kg, or 48 mg/kg. Each treatment group comprised 8 animals (4 males and 4 females). For pharmacokinetic assessment, plasma samples were collected prior to dosing, and then at 5, 10, 20 and 30 min, 1, 2, 3, 6, 24 hours after dosing.
On Day 8 of the study, the animals that received oral BH at a dose of 12 mg/kg were administered the test betahistine composition intranasally at a dose of 40 mg betahistine dihydrochloride; the animals that received oral BH at a dose of 24 mg/kg were administered the test betahistine composition intranasally at a dose of 80 mg betahistine dihydrochloride; and the animals that received oral BH at a dose of 48 mg/kg were administered the test betahistine composition intranasally at a dose of 120 mg betahistine dihydrochloride. The test betahistine composition was delivered intranasally in a single dose via an Aptar nasal spray pump device at a total dose level of 40, 80 and 120 mg of betahistine dihydrochloride. Plasma samples were collected prior to dosing, and then at 5, 10, 20 and 30 min, 1, 2, 3, 6, 24 hours after dosing.
On Day 15 of the study, the animals that received oral BH at a dose of 12 mg/kg and the test betahistine composition intranasally at a dose of 40 mg betahistine dihydrochloride were administered a bolus intravenous injection of betahistine at a dose of 0.44 mg/kg. Plasma samples were collected prior to dosing, and then at 5, 10, 20 and 30 min, 1, 2, 3, 6, 24 hours after dosing.
Betahistine 13CD3 dihydrochloride and 2-pyridylacetic acid-D4 hydrochloride were used as respective internal standards. The calibration range for betahistine was 0.05-250 ng/mL and for 2-PAA 2.00-3000 ng/mL using a plasma sample volume of 0.50 mL.
For determination of betahistine, the method involved liquid-liquid extraction, for 2-PAA, the method involved protein precipitation. Plasma samples were prepared for betahistine by extraction under basic conditions with an organic solvent, then the organic phase was dried, reconstituted and transferred for LC/MS-MS analysis. […] Sample analysis was performed using reversed phase chromatography.

For CNCCc1ccccn1 [betahistine], which concentration at 2 h (iv, 0.44 mg/kg) is on record?
The concentration at 2 h was 0.993 ng/mL.

And the concentration at 3 h (iv, 0.44 mg/kg)?
Its concentration at 3 h is 0.081 ng/mL.

What about the concentration at 6 h (iv, 0.44 mg/kg) of the same compound?
The concentration at 6 h was 1.05 ng/mL.

And the concentration at 24 h (iv, 0.44 mg/kg)?
The concentration at 24 h was 0 ng/mL.

What about the “AUC(0-6)/D” value (po, 12 mg/kg) of the same compound?
The value was 1.04 ± 0.168 hr*ng/mL/(mg/kg).

And the AUC(0-inf) (po, 12 mg/kg)?
The AUC(0-inf) was 13.3 ng·h/mL.

And the Cmax (po, 12 mg/kg)?
Its Cmax is 18.9 ± 9.99 ng/mL.

And the Cmax/D (po, 12 mg/kg)?
Its Cmax/D is 1.58 ± 0.833 ng/mL/(mg/kg).

What about the “Oral AUC/dose” value (po, 12 mg/kg) of the same compound?
The value was 1.04 (h · ng/mL)/(mg/kg).

What about the Tmax (po, 12 mg/kg) of the same compound?
Its Tmax is 30 min.

What about the half-life (po, 12 mg/kg) of the same compound?
The half-life was 18.8 min.

What about the AUC(0-t) (po, 12 mg/kg, AUC(0-6)) of the same compound?
Its AUC(0-t) is 13 ± 2.23 ng·h/mL.

What about the AUC(0-t) (po, 12 mg/kg, AUC(0-t)) of the same compound?
Its AUC(0-t) is 12.5 ± 2.02 ng·h/mL.

What about the concentration at 0 h (po, 12 mg/kg) of the same compound?
Its concentration at 0 h is 0 ng/mL.

And the concentration at 5 min (po, 12 mg/kg)?
The concentration at 5 min was 1.35 ng/mL.

And the concentration at 0.167 h (po, 12 mg/kg)?
Its concentration at 0.167 h is 2.73 ng/mL.

What about the concentration at 0.333 h (po, 12 mg/kg) of the same compound?
Its concentration at 0.333 h is 5.8 ng/mL.

What about the concentration at 0.5 h (po, 12 mg/kg) of the same compound?
Its concentration at 0.5 h is 18.9 ng/mL.

And the concentration at 1 h (po, 12 mg/kg)?
Its concentration at 1 h is 5.65 ng/mL.

What about the concentration at 2 h (po, 12 mg/kg) of the same compound?
Its concentration at 2 h is 0.457 ng/mL.

What about the concentration at 3 h (po, 12 mg/kg) of the same compound?
The concentration at 3 h was 0.036 ng/mL.

And the concentration at 6 h (po, 12 mg/kg)?
Its concentration at 6 h is 0.016 ng/mL.

What about the concentration at 24 h (po, 12 mg/kg) of the same compound?
Its concentration at 24 h is 0.021 ng/mL.

And the “AUC(0-6)/D” value (po, 24 mg/kg)?
The value was 1.44 ± 0.714 hr*ng/mL/(mg/kg).

What about the AUC(0-inf) (po, 24 mg/kg) of the same compound?
The AUC(0-inf) was 34.6 ± 17.1 ng·h/mL.

And the Cmax (po, 24 mg/kg)?
The Cmax was 38.3 ± 28.1 ng/mL.

And the Cmax/D (po, 24 mg/kg)?
The Cmax/D was 1.60 ± 1.17 ng/mL/(mg/kg).

And the “Oral AUC/dose” value (po, 24 mg/kg)?
Its value is 1.44 (h · ng/mL)/(mg/kg).

What about the Tmax (po, 24 mg/kg) of the same compound?
The Tmax was 60 min.

What about the half-life (po, 24 mg/kg) of the same compound?
Its half-life is 47.1 min.

And the AUC(0-t) (po, 24 mg/kg, AUC(0-6))?
The AUC(0-t) was 34.5 ± 17.2 ng·h/mL.

What about the AUC(0-t) (po, 24 mg/kg, AUC(0-t)) of the same compound?
The AUC(0-t) was 34.5 ± 17.1 ng·h/mL.

And the concentration at 0 h (po, 24 mg/kg)?
The concentration at 0 h was 0 ng/mL.

And the concentration at 5 min (po, 24 mg/kg)?
The concentration at 5 min was 4.69 ng/mL.

What about the concentration at 0.167 h (po, 24 mg/kg) of the same compound?
The concentration at 0.167 h was 5.05 ng/mL.

What about the concentration at 0.333 h (po, 24 mg/kg) of the same compound?
Its concentration at 0.333 h is 23.9 ng/mL.

What about the concentration at 0.5 h (po, 24 mg/kg) of the same compound?
The concentration at 0.5 h was 17.8 ng/mL.

What about the concentration at 1 h (po, 24 mg/kg) of the same compound?
Its concentration at 1 h is 26.9 ng/mL.

What about the concentration at 2 h (po, 24 mg/kg) of the same compound?
The concentration at 2 h was 2.08 ng/mL.

What about the concentration at 3 h (po, 24 mg/kg) of the same compound?
Its concentration at 3 h is 0.611 ng/mL.

And the concentration at 6 h (po, 24 mg/kg)?
Its concentration at 6 h is 0.078 ng/mL.

And the concentration at 24 h (po, 24 mg/kg)?
Its concentration at 24 h is 0 ng/mL.

And the “AUC(0-6)/D” value (po, 48 mg/kg)?
Its value is 2.73 ± 0.590 hr*ng/mL/(mg/kg).

What about the AUC(0-inf) (po, 48 mg/kg) of the same compound?
The AUC(0-inf) was 133 ng·h/mL.

And the Cmax/D (po, 48 mg/kg)?
Its Cmax/D is 2.13 ± 0.628 ng/mL/(mg/kg).

And the “Oral AUC/dose” value (po, 48 mg/kg)?
Its value is 2.73 (h · ng/mL)/(mg/kg).

What about the Tmax (po, 48 mg/kg) of the same compound?
Its Tmax is 60 min.

What about the half-life (po, 48 mg/kg) of the same compound?
Its half-life is 31.3 min.

What about the AUC(0-t) (po, 48 mg/kg, AUC(0-6)) of the same compound?
The AUC(0-t) was 131 ± 28.3 ng·h/mL.

And the AUC(0-t) (po, 48 mg/kg, AUC(0-t))?
Its AUC(0-t) is 131 ± 28.3 ng·h/mL.

And the concentration at 0 h (po, 48 mg/kg)?
The concentration at 0 h was 0 ng/mL.

And the concentration at 5 min (po, 48 mg/kg)?
Its concentration at 5 min is 14.3 ng/mL.

And the concentration at 0.167 h (po, 48 mg/kg)?
The concentration at 0.167 h was 35.7 ng/mL.

What about the concentration at 0.333 h (po, 48 mg/kg) of the same compound?
Its concentration at 0.333 h is 14.3 ng/mL.

What about the concentration at 0.5 h (po, 48 mg/kg) of the same compound?
Its concentration at 0.5 h is 33.7 ng/mL.

What about the concentration at 1 h (po, 48 mg/kg) of the same compound?
The concentration at 1 h was 80.2 ng/mL.

What about the concentration at 2 h (po, 48 mg/kg) of the same compound?
The concentration at 2 h was 21.7 ng/mL.

What about the concentration at 3 h (po, 48 mg/kg) of the same compound?
The concentration at 3 h was 3 ng/mL.

What about the concentration at 6 h (po, 48 mg/kg) of the same compound?
The concentration at 6 h was 0.238 ng/mL.

And the concentration at 24 h (po, 48 mg/kg)?
Its concentration at 24 h is 0 ng/mL.
